What all share (assay type): biochemical
One assay has as its target JNK3 (Homo sapiens, UniProt P53779). As to the kind of experiment: JNK3 33P kinase assay. Conditions: read-out: JNK3 activity as percentage of control without inhibitor. As for the experimental part: (§1) All assays (25.5 μl) were carried out at room temperature (21° C.) and were linear with respect to time and enzyme concentrations under the conditions used. Assays were performed for 30 minutes except assays for LCK and PKB which were performed for 15 minutes using Multidrop Micro reagent dispensers (Thermo Electron Corporation, Waltham, Mass. 02454, USA) in a 96-well format. The concentration of […] [γ-^33P] ATP (800 cpm/pmol) in the assays was one of three concentrations (5, 20 or 50 μM) in order to be at or below Km for ATP for the enzyme. Assays were initiated with MgATP and stopped by addition of 5 μl of 0.5M orthophosphoric acid. Assays were then harvested onto P81 filterplates using a unifilter harvester (PerkinElmer, Boston, Mass. 02118, USA), with a wash buffer of 50 mM orthophosphoric acid. Filterplates were then air dried overnight. 10 μl of Microscint O was added per well prior to counting for radioactivity.
(§2) The following kinases were assayed against the substrates indicated. Aurora B was assayed against the substrate peptide […] (300 μM), ERK8 and MST-2 were both assayed against MBP (0.33 mg/ml). IKKβ was assayed against the substrate peptide […] (300 μM), JNK3 was assayed against 3 μM ATF2[19-96]. MAPKAP-K3 and PKD1 were both assayed against […] (30 μM), MARK3 was assayed against CHKtide ([…]) substrate peptide (300 μM). MNK1 and MNK2 were both assayed against eIF4E protein (0.5 mg/ml). NEK7 was assayed against […] (300 μM), PIM2 was assayed against […] (300 μM), ΔPH PKBβ-S474D was assayed against Crosstide (30 μM), PLK1 was assayed against […] (300 μM). PRK2 was assayed against Long S6 peptide, […] (30 μM), RSK2 was assayed against […] (30 μM), SRC was assayed against cdc2 peptide, […], (300 μM) and SRPK1 was assayed against peptide […] (300 μM). All enzymes were diluted in 50 mM Tris/HCl pH 7.5, 0.1 mM EGTA, 1 mg/ml BSA, 0.1% β-mercaptoethanol buffer and assayed in an incubation containing 50 mM Tris/HCl pH7.5, 0.1 mM EGTA, 0.1% β-mercaptoethanol, CAMK-1 (5-20 mU) diluted in 50 mM Tris/HCl pH 7.5, 0.1 mM EGTA, 1 mg/ml BSA, 0.1% β-mercaptoethanol is assayed against substrate peptide […] in an incubation containing 50 mM Tris/HCl pH 7.5, 0.1 mM EGTA, 0.5 mM CaCl2, 0.3 μM calmodulin, 0.1% β-mereaptoethanol, 300 μM substrate peptide, 10 mM magnesium acetate and 0.05 mM [^33P-γ-ATP] (500-1000 cpm/pmole). EF2K (5-20 mU) diluted in 50 mM Hepes pH 6.6, 0.1% β-mercaptoethanol, 1 mg/ml BSA is assayed against a substrate peptide […] in an incubation containing 50 mM Hepes pH 6.6, 0.2 mM CaCl2, 0.3 μM Calmodulin, 0.05% b-mercaptoethanol, 300 μM substrate peptide, 10 mM magnesium acetate and 0.05 mM [^33P-γ-ATP] (500-1000 cpm/pmole).

The target in a further assay is PRK2 (Homo sapiens, UniProt Q16513). Briefly: PRK2 33P kinase assay. Conditions: read-out: PRK2 activity as percentage of control without inhibitor. As for the experimental part:
as §1
(§3) MKK1, JNK/SAPK1c, SAPK2a/p38, SAPK2b/p38β2, SAPK3/p38γ, SAPK4/p38δ, MAPK2/ERK2, MAPKAP-K1β, MAPKAP-K2, MSK1, PRAK, PKA, PKCα, PDK1, SGK, p70S6K, GSK3β, ROCK-II, PRK2, AMPK, CHK1, CHK2, CK2, PHK, LCK, were assayed according to Davies et al., (Davies, S. P., Reddy, H., Caivano, M. and Cohen, P. Biochem. J. 351, 95-105, 2000.
(§4) CSK and CDK2/cyclinA, were assayed according to Bain et al. (Bain J, McLauchlan H, Elliott M, Cohen P. Biochem J. 371, 199-204, 2003., except that ATP concentrations were either 5, 20 or 50 micromolar so that they were at or below the Km for ATP. The ATP concentrations used were as follows, 5 μM for assays of MKK1, SAPK3, SAPK4, GSK3β, PRK2 CK2 20 μm for assays of JNK, SAPK2β, MAPKAP-K2, MSK1, PRAK, PKA, […], PDK1, SGK, p70S6K, ROCK-II, CHK1, CHK2, CSK, CDK2, and 50 μM for assays of SAPK2a, MAPK2/ERK2, AMPK, LCK, PHK and MAPKAP-K1β.
as §2

For another assay, the target named is CHK2 (Homo sapiens, UniProt O96017). As to the kind of experiment: CHK2 33P kinase assay. Conditions: read-out: CHK2 activity as percentage of control without inhibitor. Here is the method:
as §1, §3, §4

A further assay has as its system CK1. As to the kind of experiment: CK1 33P kinase assay. Here is the method: as §1

SMILES strings stand for the structures. Read-outs that look alike come from different tables or passages of the source.

The values below come from patent US20100063085A1, “METHOD OF TREATING LEARNING IMPAIRMENT IN DOWN'S SYNDROME SUBJECTS” (University Court of The University of Dundee, priority 2008, published 2010).

Sequence of CHK2 (O96017 whole entry, species assumed): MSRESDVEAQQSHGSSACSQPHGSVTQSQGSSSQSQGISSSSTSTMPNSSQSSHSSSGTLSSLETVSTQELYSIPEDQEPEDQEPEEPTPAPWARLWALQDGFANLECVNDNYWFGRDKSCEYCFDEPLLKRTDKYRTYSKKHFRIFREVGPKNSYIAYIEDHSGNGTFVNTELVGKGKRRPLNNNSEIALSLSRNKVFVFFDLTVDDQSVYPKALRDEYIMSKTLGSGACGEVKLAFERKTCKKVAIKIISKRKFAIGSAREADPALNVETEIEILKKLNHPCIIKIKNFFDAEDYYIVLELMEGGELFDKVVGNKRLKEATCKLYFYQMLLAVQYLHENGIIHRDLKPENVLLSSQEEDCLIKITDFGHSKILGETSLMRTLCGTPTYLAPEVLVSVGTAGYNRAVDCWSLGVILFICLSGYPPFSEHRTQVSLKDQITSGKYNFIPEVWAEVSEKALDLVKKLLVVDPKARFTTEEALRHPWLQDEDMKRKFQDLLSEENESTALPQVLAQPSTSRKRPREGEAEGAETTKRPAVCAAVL
Sequence of PRK2 (Q16513 whole entry, species assumed): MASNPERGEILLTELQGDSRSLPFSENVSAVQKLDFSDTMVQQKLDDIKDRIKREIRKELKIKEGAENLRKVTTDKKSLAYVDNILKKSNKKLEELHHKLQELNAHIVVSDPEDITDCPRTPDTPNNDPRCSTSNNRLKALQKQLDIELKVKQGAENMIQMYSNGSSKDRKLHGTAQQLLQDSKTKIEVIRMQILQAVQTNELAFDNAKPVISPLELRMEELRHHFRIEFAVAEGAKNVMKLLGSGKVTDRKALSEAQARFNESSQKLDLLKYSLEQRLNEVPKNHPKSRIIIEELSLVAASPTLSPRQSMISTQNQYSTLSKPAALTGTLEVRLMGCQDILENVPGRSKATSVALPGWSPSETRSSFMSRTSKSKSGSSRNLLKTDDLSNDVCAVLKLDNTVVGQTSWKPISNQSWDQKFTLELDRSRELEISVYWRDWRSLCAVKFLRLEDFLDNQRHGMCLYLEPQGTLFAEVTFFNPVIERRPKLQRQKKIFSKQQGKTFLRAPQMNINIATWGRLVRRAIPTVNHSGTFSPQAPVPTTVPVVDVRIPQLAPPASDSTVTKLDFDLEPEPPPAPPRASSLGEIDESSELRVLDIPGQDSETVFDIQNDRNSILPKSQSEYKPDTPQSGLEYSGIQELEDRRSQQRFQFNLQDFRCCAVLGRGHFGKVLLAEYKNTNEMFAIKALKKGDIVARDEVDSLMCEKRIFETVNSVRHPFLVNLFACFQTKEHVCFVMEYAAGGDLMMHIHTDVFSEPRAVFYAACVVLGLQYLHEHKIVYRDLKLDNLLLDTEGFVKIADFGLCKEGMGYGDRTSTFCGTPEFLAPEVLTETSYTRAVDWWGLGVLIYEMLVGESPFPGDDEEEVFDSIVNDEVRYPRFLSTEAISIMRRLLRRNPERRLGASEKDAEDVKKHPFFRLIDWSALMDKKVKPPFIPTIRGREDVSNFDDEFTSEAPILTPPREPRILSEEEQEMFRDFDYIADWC
Sequence of JNK3 (P53779 whole entry, species assumed): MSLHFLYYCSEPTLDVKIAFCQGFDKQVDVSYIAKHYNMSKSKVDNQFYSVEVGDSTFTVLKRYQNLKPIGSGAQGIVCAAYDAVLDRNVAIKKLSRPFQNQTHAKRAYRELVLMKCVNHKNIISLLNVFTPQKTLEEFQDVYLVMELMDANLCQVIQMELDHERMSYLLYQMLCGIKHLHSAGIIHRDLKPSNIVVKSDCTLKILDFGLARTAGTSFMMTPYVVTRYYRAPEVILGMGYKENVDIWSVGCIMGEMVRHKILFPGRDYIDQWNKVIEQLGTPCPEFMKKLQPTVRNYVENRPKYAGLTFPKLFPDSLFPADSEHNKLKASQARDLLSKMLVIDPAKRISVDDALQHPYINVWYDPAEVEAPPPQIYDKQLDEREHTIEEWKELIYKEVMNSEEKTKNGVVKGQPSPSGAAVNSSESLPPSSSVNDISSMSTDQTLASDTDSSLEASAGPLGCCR

On to `COc1ccc2c3c([nH]c2c1)C(C)=NCC3` [Harmaline], for which the figures for the remaining activity at 1 µM on JNK3, on PRK2 (inhibitor 1 μM) and at CHK2 (inhibitor 1 μM) were 87%, 97% and 89%, respectively. In addition, the values for the remaining activity at 10 µM on JNK3, at PRK2 (inhibitor 10 μM) and on CHK2 (inhibitor 10 μM) were 81%, 83% and 89%, respectively. The “CK1 activity as percentage of control without inhibitor” value in the assay on CK1 (inhibitor 1 μM) was 84%; in the assay with CK1 (inhibitor 10 μM), 65%.

As to `CC1=NCCc2c1[nH]c1cc(O)ccc21` [Harmalol], the remaining activity at 1 µM at JNK3 (inhibitor 1 μM) amounted to 92%; at PRK2 (inhibitor 1 μM) it was 86%; on CHK2 (inhibitor 1 μM) it was 76%. For the same compound, the remaining activity at 10 µM at JNK3 (inhibitor 10 μM) amounted to 94%; on PRK2 (inhibitor 10 μM) it was 54%; at CHK2 (inhibitor 10 μM) it was 57%. Moreover, the figures for the “CK1 activity as percentage of control without inhibitor” value with CK1 (inhibitor 1 μM) and in the assay with CK1 (inhibitor 10 μM) were 83% and 48%, respectively.

Consider `COc1ccc2c(c1)[nH]c1c(C)nccc12` [Harmine], for which the remaining activity at 1 µM amounted to 89% at JNK3, 82% on PRK2 and 78% at CHK2. The remaining activity at 10 µM on JNK3 stood at 83%; on PRK2, 45%; on CHK2 it was 79%. Also, the entries for the “CK1 activity as percentage of control without inhibitor” value in the assay on CK1 (inhibitor 1 μM) and in the assay with CK1 (inhibitor 10 μM) were 61% and 21%, respectively.
